{"source": "patent EP1143970B1", "about": "“PYRIDINE COMPOUNDS, USE AND PREPARATION THEREOF” (priority 1999, dated 2000)", "key": {"[1]": {"assay": "Anti-cancer activity (test not described)"}, "P388/BCNU": {"test_system": "P388/BCNU", "assay": "Antitumor activity against IP-implanted P388/BCNU leukemia in mice"}, "P388/CPA": {"test_system": "P388/CPA", "assay": "Antitumor activity against IP-implanted P388/CPA leukemia in mice", "type": "in vivo, murine"}, "ZR-75-1 mammary": {"test_system": "ZR-75-1 mammary", "assay": "In vivo antitumor activity against s.c.-implanted human tumor xenograft ZR-75-1", "settings": "sc ZR-75-1"}, "U251 CNS": {"test_system": "U251 CNS", "assay": "In vivo antitumor activity against s.c.-implanted human tumor xenograft U251", "settings": "sc U251; IP 90 mg/kg/dose, Days 19-23"}, "P388/L-PAM": {"test_system": "P388/L-PAM", "assay": "Antitumor activity against IP-implanted P388/L-PAM leukemia in mice", "settings": "P388/L-PAM"}, "human MX-1 mammary tumor [2]": {"test_system": "human MX-1 mammary tumor", "assay": "In vivo antitumor activity against s.c.-implanted human MX-1 mammary tumor xenograft", "settings": "sc MX-1; IP 60 mg/kg/dose, Days 15-19", "description": "(§1) The antitumor activity data of the acyl derivatives of DM-PEN vs MX-1 human mammary tumor xenograft implanted s.c. or i.c. with intraperitoneal (i.p.) or oral drug treatment are shown in Table 1 below."}, "human MX-1 mammary tumor [3]": {"test_system": "human MX-1 mammary tumor", "assay": "In vivo antitumor activity against i.c.-implanted human MX-1 mammary tumor xenograft", "set-up": "species or system mouse", "description": "as §1\nTable 2Comparative Activity of PEN, DM-PEN and DM-ACYL-PEN Against […] Human MX-1 Mammary Tumor at Optimal Doses (LD10 or Less) and Schedule (QD1-5) Administered I.P."}, "[4]": {"settings": "IP 30.0 MG/KG/DOSE, Q1D X 1 (1)"}, "[5]": {"settings": "P388/0, IP 20.0 MG/KG/DOSE, Q1D X 1 (1)"}, "[6]": {"settings": "IP 60.0 MG/KG/DOSE, Q1D X 5 (1)"}, "[7]": {"settings": "IP 90.0 MG/KG/DOSE, Q1D X 5 (1)"}, "[8]": {"settings": "IP 135.0 MG/KG/DOSE, Q1D X 5 (1)"}, "[9]": {"settings": "highest nontoxic doses evaluated, difference to DM-PEN"}, "[10]": {"settings": "highest nontoxic doses evaluated, difference to PEN"}, "[11]": {"settings": "P388/0, IP 90.0 MG/KG/DOSE, Q1D X 5 (1)"}, "[12]": {"settings": "P388/0, IP 135.0 MG/KG/DOSE, Q1D X 5 (1)"}}, "note": "Where two headings read alike, the source gives them in different places. Marks after values point to notes of the source that are not given here.", "data": [{"compound": "CCOc1nc(C(Cl)(Cl)Cl)c(Cl)c(OCC)c1Cl", "note": "[3,5-dichloro-4,6-diethoxy-2-(trichloromethyl)pyridine]", "values": [{"measurement": "anti-cancer activity (in words)", "setting": "[1]", "result": "show active anti-cancer activity"}]}, {"compound": "CCOc1c(Cl)c(OC)nc(C(Cl)(Cl)Cl)c1Cl", "note": "[3,5-dichloro-4-ethoxy-6-methoxy-2-(trichloromethyl)pyridine]", "values": [{"measurement": "anti-cancer activity (in words)", "setting": "[1]", "result": "show active anti-cancer activity"}]}, {"compound": "O=NN(CCCl)C(=O)NCCCl", "note": "[BCNU, carmustine]", "values": [{"measurement": "50-DAY SURV./ TOTAL", "setting": "P388/BCNU; IP 20.0 MG/KG/DOSE, Q1D X 1 (1)", "result": "0 / 6"}, {"measurement": "50-DAY SURV./ TOTAL", "setting": "P388/BCNU; [4]", "result": "0 / 6"}, {"measurement": "MEDIAN DAY OF DEATH", "setting": "P388/BCNU; [4]", "result": 6.5}, {"measurement": "50-DAY SURV./ TOTAL", "setting": "P388/0; [5]", "result": "3 / 6"}, {"measurement": "% ILS", "setting": "P388/0; [5]", "result": "+145%"}, {"measurement": "APPROX. NET LOG10 CHANGE IN TUMOR BURDEN AT END OF Rx", "setting": "P388/0; [5]", "result": "ca-6.8"}, {"measurement": "50-DAY SURV./ TOTAL", "setting": "P388/0; P388/0, IP 30.0 MG/KG/DOSE, Q1D X 1 (1)", "result": "6 / 6"}]}, {"compound": "O=P1(N(CCCl)CCCl)NCCCO1", "note": "(centres unmarked) [CPA, cyclophosphamide]", "values": [{"measurement": "50-DAY SURV./ TOTAL", "setting": "P388/CPA; IP 175.0 MG/KG/DOSE, Q1D X 1 (1)", "result": "0 / 6"}, {"measurement": "50-DAY SURV./ TOTAL", "setting": "P388/CPA; IP 265.0 MG/KG/DOSE, Q1D X 1 (1)", "result": "0 / 6"}, {"measurement": "50-DAY SURV./ TOTAL", "setting": "P388/0; P388/0, IP 175.0 MG/KG/DOSE, Q1D X 1 (1)", "result": "1 / 6"}, {"measurement": "50-DAY SURV./ TOTAL", "setting": "P388/0; P388/0, IP 265.0 MG/KG/DOSE, Q1D X 1 (1)", "result": "6 / 6"}]}, {"compound": "COc1nc(C(Cl)(Cl)Cl)c(Cl)c(OC(C)=O)c1Cl", "note": "[DM-A-PEN]", "values": [{"measurement": "T-C", "setting": "ZR-75-1 mammary; IP 60 mg/kg/dose, Days 10-14", "result": 10.6, "unit": "days"}, {"measurement": "T-C", "setting": "ZR-75-1 mammary; IP 90 mg/kg/dose, Days 8-12", "result": 14.1, "unit": "days"}, {"measurement": "50-DAY SURV./ TOTAL", "setting": "P388/BCNU; [6]", "result": "1 / 6"}, {"measurement": "50-DAY SURV./ TOTAL", "setting": "P388/BCNU; [7]", "result": "0 / 6"}, {"measurement": "50-DAY SURV./ TOTAL", "setting": "P388/BCNU; [8]", "result": "0 / 6"}, {"measurement": "% ILS", "setting": "P388/BCNU; [8]", "result": "+133%"}, {"measurement": "Lethality at the stated dosage (LD level)", "setting": "P388/BCNU; [8]", "result": "LD17"}, {"measurement": "more active than DM-PEN, log cell kill", "setting": "P388/BCNU; [9]", "result": 1.5, "unit": "log cell kill"}, {"measurement": "more active than PEN, log cell kill", "setting": "P388/BCNU; [10]", "result": 3.5, "unit": "log cell kill"}, {"measurement": "T-C", "setting": "U251 CNS", "result": 15.7, "unit": "days"}, {"measurement": "50-DAY SDRV./ TOTAL", "setting": "P388/L-PAM; [6]", "result": "0 / 6"}, {"measurement": "50-DAY SDRV./ TOTAL", "setting": "P388/L-PAM; [7]", "result": "0 / 6"}, {"measurement": "50-DAY SDRV./ TOTAL", "setting": "P388/L-PAM; [8]", "result": "0 / 6"}, {"measurement": "Lethality at the stated dosage (LD level)", "setting": "P388/L-PAM; [8]", "result": "LD17"}, {"measurement": "more active than PEN or DM-PEN, log cell kill", "setting": "P388/L-PAM; difference to PEN or DM-PEN", "result": "0.2-0.3 log cell kill"}, {"measurement": "50-DAY SURV./ TOTAL", "setting": "P388/CPA; [6]", "result": "0 / 6"}, {"measurement": "50-DAY SURV./ TOTAL", "setting": "P388/CPA; [7]", "result": "0 / 6"}, {"measurement": "% ILS", "setting": "P388/CPA; [7]", "result": "+66%"}, {"measurement": "MEDIAN DAY OF DEATH", "setting": "P388/CPA; [7]", "result": 20.5}, {"measurement": "50-DAY SURV./ TOTAL", "setting": "P388/CPA; [8]", "result": "0 / 6"}, {"measurement": "% ILS", "setting": "P388/CPA; [8]", "result": "+127%"}, {"measurement": "more active than DM-PEN, log cell kill", "setting": "P388/CPA; [9]", "result": 4.6, "unit": "log cell kill"}, {"measurement": "more active than PEN, log cell kill", "setting": "P388/CPA; [10]", "result": 7.4, "unit": "log cell kill"}, {"measurement": "Lethality at the stated dosage (LD level)", "setting": "human MX-1 mammary tumor [2]", "result": "60 (LD20)"}, {"measurement": "50-DAY SURV./ TOTAL", "setting": "P388/0; P388/0, IP 60.0 MG/KG/DOSE, Q1D X 5 (1)", "result": "0 / 6"}, {"measurement": "50-DAY SURV./ TOTAL", "setting": "P388/0; [11]", "result": "0 / 6"}, {"measurement": "MEDIAN DAY OF DEATH", "setting": "P388/0; [11]", "result": 21.5}, {"measurement": "50-DAY SURV./ TOTAL", "setting": "P388/0; [12]", "result": "0 / 6"}, {"measurement": "Lethality at the stated dosage (LD level)", "setting": "P388/0; [12]", "result": "LD33"}, {"measurement": "MEDIAN DAY OF DEATH", "setting": "P388/0; [12]", "result": 28.5}, {"measurement": "more active than PEN, log cell kill", "setting": "P388/0; P388/0, highest nontoxic doses evaluated, difference to PEN", "result": 0.4, "unit": "log cell kill"}, {"measurement": "more active than DM-PEN, log cell kill", "setting": "P388/0; P388/O, highest nontoxic doses evaluated, difference to DM-PEN", "result": 1.9, "unit": "log cell kill"}]}, {"compound": "COc1nc(C(Cl)(Cl)Cl)c(Cl)c(OC(=O)c2ccccc2)c1Cl", "note": "[DM-B-PEN]", "values": [{"measurement": "Tumor-Free-Surv/Total", "setting": "human MX-1 mammary tumor [3]; ic MX-1, IP 135 mg/kg/dose, Days 1-5", "result": ". 0/5"}]}, {"compound": "COc1nc(C(Cl)(Cl)Cl)c(Cl)c(OC(=O)c2ccco2)c1Cl", "note": "[DM-F-PEN]", "values": [{"measurement": "Median % ILS", "setting": "human MX-1 mammary tumor [3]; I.C.-implanted MX-1, optimal doses (LD10 or less), schedule QD1-5, I.P., based on dying mice only", "result": "108^c %"}]}]}
